The text below walks through data of ChEMBL document CHEMBL3734723, “Synthesis and anticancer activity of 6-heteroarylcoumarins” (2015).

As a reminder, the GI50 is the concentration giving 50% growth inhibition. Low readings indicate more potent growth inhibition, high ones less potent growth inhibition. As a reminder, the TGI is the concentration giving total growth inhibition. A low value points to greater sensitivity of the cells.

Format in all cases: functional
For one assay, the system named is EKVX. The experiment in a line: Growth inhibition of human EKVX cells incubated for 48 hrs by sulforhodamine B assay. (In general: In SRB staining, fixed cells bind dye roughly in proportion to their protein.)
In another assay the test system is MDA-MB-435. As to the kind of experiment: Growth inhibition of human MDA-MB-435 cells incubated for 48 hrs by sulforhodamine B assay. As to conditions: MDA-MB-435, 48 h.
Another assay relates to NCI-H226. As to the kind of experiment: Cytotoxicity against human NCI-H226 cells assessed as cell growth at 10 uM incubated for 48 hrs by sulforhodamine B assay. As to conditions: NCI-H226, 48 h, read-out: Activity.
Assay [1] can be described thus: Growth inhibition of human Caki1 cells incubated for 48 hrs by sulforhodamine B assay. As to conditions: CAKI-1, 48 h.
Assay [2] in a line: Cytotoxicity against human DU145 cells assessed as cell growth at 10 uM incubated for 48 hrs by sulforhodamine B assay. As to conditions: DU-145, 48 h, read-out: Activity.
Assay [3] in a line: Cytotoxicity against human OVCAR8 cells assessed as cell growth at 10 uM incubated for 48 hrs by sulforhodamine B assay. As to conditions: OVCAR-8, 48 h, read-out: Activity.
Assay [4] can be described thus: Cytotoxicity against human HOP62 cells assessed as cell growth at 10 uM incubated for 48 hrs by sulforhodamine B assay. As to conditions: HOP-62, 48 h, read-out: Activity.
Assay [5] can be described thus: Growth inhibition of human OVCAR4 cells incubated for 48 hrs by sulforhodamine B assay. As to conditions: OVCAR-4, 48 h.
A short description of assay [6]: Cytotoxicity against human SKOV3 cells assessed as cell growth at 10 uM incubated for 48 hrs by sulforhodamine B assay. As to conditions: SK-OV-3, 48 h, read-out: Activity.
Assay [7] in a line: Growth inhibition of human MOLT4 cells incubated for 48 hrs by sulforhodamine B assay. As to conditions: MOLT-4, 48 h.
In the next assay the test system is K562. As to the kind of experiment: Growth inhibition of human K562 cells incubated for 48 hrs by sulforhodamine B assay. As to conditions: K562, 48 h.
Assay [8] in a line: Cytotoxicity against human BT549 cells assessed as cell growth at 10 uM incubated for 48 hrs by sulforhodamine B assay. As to conditions: BT-549, 48 h, read-out: Activity.
For another assay, the system named is NCI-H322M. The experiment in a line: Cytotoxicity against human NCI-H322M cells assessed as cell growth at 10 uM incubated for 48 hrs by sulforhodamine B assay. As to conditions: read-out: Activity.
Assay [9] is described as follows: Growth inhibition of human HL-60(TB) cells incubated for 48 hrs by sulforhodamine B assay. As to conditions: HL-60, 48 h.
A further assay relates to SK-MEL-2. As to the kind of experiment: Cytotoxicity against human SK-MEL-2 cells assessed as cell growth at 10 uM incubated for 48 hrs by sulforhodamine B assay. As to conditions: SK-MEL-2, 48 h, read-out: Activity.
Assay [10] is described as follows: Cytotoxicity against human UACC257 cells assessed as cell growth at 10 uM incubated for 48 hrs by sulforhodamine B assay. As to conditions: UACC-257, 48 h, read-out: Activity.
The next assay relates to SK-MEL-28. The experiment in a line: Cytotoxicity against human SK-MEL-28 cells assessed as cell growth at 10 uM incubated for 48 hrs by sulforhodamine B assay. As to conditions: SK-MEL-28, 48 h, read-out: Activity.
Where [11] appears, read: read-out: LC50 (the source's name).

For the compound `Cc1cc(=O)oc2c(C)c(O)c(-c3ccnc(N)n3)cc12`, the figures for the GI50 (in the assay with EKVX; in the assay on MDA-MB-435; in assay [1]) were 48.4 µM, over 100 µM and 3.95 µM, respectively. The TGI (with EKVX; in the assay with MDA-MB-435; in assay [1]) was over 100 µM in each case. For the same compound, the CC50 (in the assay with EKVX (setting [11]); in the assay on MDA-MB-435 (setting [11]); in assay [1] (setting [11])) was over 100 µM throughout. Further, the growth at 10 µM is 52.3% with NCI-H226, 66.6% in [2], 48% in assay [3] and 67.8% in [4].
Regarding `Cc1cc(=O)oc2c(C)c(O)c(-c3cc4ccc(F)cc4[nH]3)cc12`, the 50% growth inhibitory concentration (GI50) was 3.99 µM in [5], 3.27 µM in assay [7], 2.68 µM in the assay with K562 and 2.96 µM in assay [9]. In addition, the TGI in [5] turned out to be 32.9 µM; in assay [7], 15 µM; in the assay on K562 it was 23 µM; in assay [9], 9.69 µM. In addition, the CC50 (in assay [5] (setting [11]); in [7] (setting [11]); with K562 (setting [11]); in assay [9] (setting [11])) was over 100 µM each time. The growth at 10 µM was 47.1% in assay [6]; 47.6% in [8]; 53.4% in the assay on NCI-H322M; 19.5% with SK-MEL-2; 30.4% in assay [10]; 55.3% with SK-MEL-28.
